The values below come from US8748480B2, “Methods for treating opioid tolerance” (priority 2005, dated 2014).

For the experiment, the target named is T1, Gβγ (protein interaction site of Gβ) (Rattus norvegicus, UniProt P54311).
T1 construct: made in house; host or cells: Sf9 insect cells (baculovirus), co-expressed with BirA and (His)6-Gαi1
Kind of experiment: Phage ELISA: small molecules competing with SIGK-phage binding to immobilized biotinylated Gβγ. As to conditions: read-out: IC50. Here is the method:
Exemplary compounds of the present invention were initially selected from a computational screen to identify ligands that bind to the novel protein interaction site of Gβ. The computational screen involved using SYBYL molecular modeling software to model the protein interaction site of Gβ as determined in the X-ray structure disclosed herein. The computational docking screen was performed with the National Cancer Institute 1900 compound library wherein the compounds were tested for docking to the protein interaction site of Gβ using FLEXX™ (Tripos, Inc., St. Louis, Mo.) for docking and CSCORE™ (Tripos, Inc.) to evaluate the energetics and fitness of the docked structure. Algorithm-dependent lists of compounds, predicted to interact with the protein interaction site of Gβ and the structural model of the interaction, were generated. Selected compounds were subsequently analyzed in the phage ELISA binding assay disclosed herein to assess whether these compounds could bind to the protein interaction site of Gβ and interfere with protein interactions at this surface.
Wild-type Gβ1 and Gβ1 mutants were made in the baculovirus vector PDW464 which encodes a biotinylation site at a lysine upstream of the amino terminus of Gβ1 (Goubaeva, et al. (2003) supra). Mutants were generated by overlap extension PCR using standard protocols. The wild-type and mutant Gβ1 constructs consisted of a 20 amino acid biotin acceptor peptide (BAP) sequence fused in-frame with the amino-terminus of rat Gβ1 subunit. When coexpressed with biotin holoenzyme synthetase (BirA) in Sf9 cells, the Gβ1 subunit becomes covalently biotinylated in vivo at the Specific lysine acceptor residue in the BAP.
Phage ELISA assays used to assess peptide binding to wild-type and mutant b-βγ were performed according to standard methods (Smrcka and Scott (2002) Methods Enzymol. 344:557-76). Briefly, 1 μg streptavidin was immobilized in the well of a […] overnight at 4° C. The wells were blocked with 100 μL of 2% bovine serum albumin (BSA) in Tris-buffered saline (TBS) for 1 hour at 4° C. followed by three washes of 1×TBS/0.5% TWEEN®. […] The wells were washed, followed by the addition of 1×10^6 to 1×10^10 phage particles and incubated at 4° C. for 3 hours. The wells were then washed six times with TBS/0.5% TWEEN® followed by addition of 40 μL of 1:5000 dilution of anti-M13 antibody (Pharmacia, Uppsala, Sweden) and incubated at room temperature for 1 hour. The wells were washed, followed by the addition of 40 μL of (2,2′-Azino-bis(3-ethylbenzthiazoline)-6-sulfonic acid (ABTS) and the colorimetric reaction was monitored at 405 nm. Non-specific binding was subtracted for each reading.
A phage ELISA assay was used to determine whether small molecules identified in the computational screen could interact with the Gβγ protein interaction surface. […] The screen was based on a reduction in the optical density (OD) of wells containing Gβγ subunits and phage. […] Three background wells contained no βγ subunits.
As disclosed herein, biotinylated Gβγ subunits were immobilized on the surface of a 96-well plate coated with streptavidin, phage displaying Gβγ-binding peptides were subsequently added and binding in the presence and absence of test compounds detected with an anti-phage antibody.

Molecules are shown by their SMILES.

In the case of `Nc1ccc(-c2ccc(Nc3cc(S(=O)(=O)O)c(N)c4c3C(=O)c3ccccc3C4=O)cc2)c(S(=O)(=O)O)c1` [NSC125910], the IC50 was 68 µM.

Consider `Ic1ccc2c(c1)N(c1ccccc1)c1cc(Nc3ccc4nc5ccc(I)cc5[n+](-c5ccccc5)c4c3)ccc1N2` [NSC402959], for which the IC50 came out at 2 µM.

For the compound `CCc1cc2c(c3ccc(C(=O)CBr)cc13)CCCC2` [NSC30820], the IC50 stood at 0.1 µM.

On to `O=C1c2ccccc2C(=O)c2c(Nc3cc4c5c(ccc6c7ccc8c9c(cc(Nc%10cccc%11c%10C(=O)c%10ccccc%10C%11=O)c(c3c56)c97)-c3ccccc3C8=O)C(=O)c3ccccc3-4)cccc21` [NSC23128], for which the IC50 was 16 µM.

The IC50 is the concentration at which inhibition is half-maximal.
